For four substances, Kd results are on record in US5698391A, “Methods for synthetic unrandomization of oligomer fragments” (ISIS Pharmaceuticals, Inc., priority 1994, dated 1997).

The subject of the series is HIV gag-pol stem loop. The series can be described thus: Gel shift, oligonucleotide set binding to HIV gag-pol triple strand. To be noted: pH 5, 100 mM NaCl, 2 mM MgCl2, 1 mM spermidine. From the text:
Binding to double stranded DNA or RNA is possible by formation of a three stranded complex, with the incoming third strand binding in the major groove of the duplex RNA or DNA. FIG. 6 illustrates a double stranded RNA structure from HIV known as the gag-pol stem loop (Vickers and Ecker, Nucleic Acids Research). One of the limitations in the design of triple strand interactions is the need to have a long stretch of homopurines as a target. The 3' (right) side of the gag-pol stem loop is homopurine except for a pair of cytosines near the bottom of the stem. To determine the best oligonucleotide to bind to the gag-pol stem loop, a group of RNA oligonucleotide sets was designed to bind to the purine-rich strand of the gag-pol stem-loop by Hoogstein base pairing and prepared in accordance with Examples 2 and 6. Binding to the gag-pol stemloop was measured by gel shift analysis as previously described in Example 8 with the following modifications: the radiolabeled gag-pol RNA was incubated with the oligonucleotide in 100 mM NaCl, 25 mM TRIS acetate (pH 5), 2 mM MgCl2, 1 mM spermidine. The gel was 15% acrylamide with 50 mM NaCl and 2 mM MgCl2 added to the running buffer.
For orientation: Kd means the equilibrium constant for the complex coming apart. For the substance “A2: RNA oligonucleotide, SEQ ID NO: 10 (CCCUUCCCAUC; RNA, backbone not given here) [Set A2]”, the Kd is 10 µM.

Consider “B2: RNA oligonucleotide, SEQ ID NO: 11 (CCCUUCCCGUC; RNA, backbone not given here) [Set B2]”, for which the Kd amounted to 10 µM. The figure for “C2: RNA oligonucleotide, SEQ ID NO: 12 (CCCUUCCCCUC; RNA, backbone not given here) [Set C2]” is 1 µM; for “D2: RNA oligonucleotide, SEQ ID NO: 13 (CCCUUCCCUUC; RNA, backbone not given here) [Set D2]” it is 10 µM.
